Assay results published in PMC9202147, “In vitro anti-HIV and cytotoxic effects of pure compounds isolated from Croton macrostachyus Hochst. Ex Delile” (BMC Complementary Medicine and Therapies, 2022).
Converted amounts (≈) assume the structure as drawn. Where two headings read alike, the source gives them in different places.

What was measured:
[1] = tested on: HIV-1IIIB virus; experiment: Anti-HIV activity: inhibition of HIV-1-induced cytopathic effect in MT-4 cells, MTT colorimetric assay; assay type: cell-based; settings: for SI (selective index): ratio of CC50 to EC50, MT-4 cells; for Emax: read-out: EmaxAV (maximum antiviral effect %, inhibition of virus-induced CPE)
Protocol: The effects of the test compounds in preventing cytopathic effects that occur because of HIV-1 replication were evaluated by MTT colorimetric assay. MT-4 cells suspended at 1 X 10^8 cells/ml were infected with 640 μL of HIV-1IIIB virus at 1.26 X10^8 TCID50/ml. After infection, 200 μl HIV-infected MT-4 cells (1 X10^5 cells/well) in growth media were added to each well. The plates were preincubated for 24 h at 37 °C to allow stabilization. Then, 50 μL of the test compounds (at a concentration of 4 mg/ml) were added to the first column of the well. With a multichannel pipette, 50 μL was transferred (in triplicate) from the wells labeled 1 to wells labeled 2. Such transfers were continued (serial dilution), moving from left to right, changing tips prior to mixing contents of the next column of wells. Finally, 50 μL was discarded from the wells in column 12. Different concentrations ([…]) of test compounds were prepared through serial dilution. Each dilution was tested in triplicates. The microtiter plates were incubated at 37 °C in a 5% CO2 incubator for 5 days. […] After 5 days of incubation, cell viability was determined by the MTT assay described. All compounds were assayed in triplicate.

[2] = tested on: MT-4 cells; experiment: in vitro; settings: 5 days, MTT, mean ± S.E.M (n = 3); for MNTC (maximum nontoxic concentration): concentration with cell viability above 80% (CC20)
Protocol: (§1) A cytotoxicity test was conducted to evaluate the safety of the plant extracts by measuring cell death caused by the plant extracts. The assay was conducted using an MTT colorimetric assay. The MTT assay was based on the reduction of the yellow-colored tetrazolium salt MTT 3-(4,5-dimethylthiazol-2-yl)-2,5-diphenyltetrazolium bromide) by NAD(P)H-dependent cellular oxidoreductase enzymes to an insoluble dark-blue colored formazan that can be measured spectrophotometrically. Formazan production indicates the number of viable cells; therefore, an increase or decrease in cellular viability results in a change in the amount of formazan formed, which indicates the degree of cellular cytotoxicity (CC50) caused by the plant extract. MTT (3-(4,5-dimethylthiazol-2-yl)-2,5-diphenyl tetrazolium bromide) was dissolved in PBS to obtain a final concentration of 5 mg/ml and filtered to sterilize and remove insoluble residue. The assay was carried out in 96-well, flat-bottomed microtiter plates. To each well, 200 μl of MT-4 cells (1 × 10^5 cells) in growth media was added. The plates were preincubated for 24 h at 37 °C to allow stabilization. Then, 50 μL of the test compounds (at a concentration of 4 mg/ml) were added to the first column of the well. With a multichannel pipette, 50 μL was transferred (in triplicate) from the wells labeled 1 to wells labeled 2, and such transfers were continued (serial dilution), moving from left to right, changing tips prior to mixing contents of the next column of wells. Finally, 50 μL was discarded from the wells in column 12. […] Each dilution was tested in triplicates. The negative control (NC) wells contained 50 μl of MT-4 cells in 0.5% DMSO [52]. […] A 96-well microtiter plate containing the test compounds and positive and negative controls was incubated at 37 °C in a humidified atmosphere of 5% CO2 for 5 days. After incubation, 20 μl of MTT reagent (5 mg/ml MTT in phosphate-buffered saline) was added to each test well and control well. The plate was further incubated at 37 °C in a CO2 incubator for 4 hours. After 4 hours of incubation, 100 μl of DMSO was added to dissolve the dark-blue formazan crystals from surviving cells. After the formazan crystals were dissolved completely, the resulting optical density (OD) readings were measured relative to the controls on an ELISA plate reader at 570 nm with a reference wavelength of 620 nm. For each extract and pure compound tested, 3 triplicate determinations were performed. […] The concentration that determined cell viability above 80% (CC20) was chosen as the maximum non-toxic concentration (MNTC).

[3] = in vitro; settings: human, MT-4 cells
Protocol: as §1

[4] = tested on: HIV; parameters: method as in ref 61 (Chaniad et al); settings: ref 61 (Chaniad et al); read-out: IC50 against HIV; cited from earlier work
[5] = target: HIV-1 RT-associated RNase H function; parameters: method as in ref 62 (Esposito et al); settings: ref 62 (Esposito et al); cited from earlier work
[6] = HIV-1IIIB-infected MT-4 cells, 5 days, MTT, mean ± S.E.M (n = 3)
[7] = Human immunodeficiency virus 1, MT4, 120 h, read-out: IC50 (50% antiviral effect concentration), HIV-1IIIB-infected MT-4 cells, 5 days, MTT, mean ± S.E.M (n = 3)
[8] = Human immunodeficiency virus 1, MT4, 120 h, HIV-1IIIB-infected MT-4 cells, 5 days, MTT, mean ± S.E.M (n = 3)
[9] = CC50 (50% cytotoxic concentration), 5 days, MTT, mean ± S.E.M (n = 3)
[10] = Human immunodeficiency virus 1, MT4, 120 h, read-out: IC50 (50% antiviral effect concentration)

| Compound | EmaxAV (maximum antiviral effect %, inhibition of virus-induced CPE) [1, 6] [%] | IC50 [1, 7] [µg/mL] | SI (selective index) [1] | MNTC (maximum nontoxic concentration) [2] [µg/mL] | CC50 (50% cytotoxic concentration) [2] [µg/mL] | EmaxC (maximum cytotoxic effect %) [2] [%] | Emax [1, 8] [%] | CC50 at 5 days [3] [µg/mL] | IC50 ([1]; Human immunodeficiency virus 1, MT4, as stated in abstract/conclusions, read-out: anti-HIV-1 inhibition IC50) [nM] | CC50 at 5 days [3, 9] [µg/mL] | IC50 ([1]; Human immunodeficiency virus 1, MT4, read-out: anti-HIV-1 inhibition IC50) [nM] | IC50 ([1]; Human immunodeficiency virus 1, MT4, as stated in abstract, read-out: anti-HIV-1 inhibition IC50) [µg/mL] | IC50 [4] [nM] | IC50, HIV-1 RT-associated RNase H function [5] [nM] | Emax ([1]; Human immunodeficiency virus 1, MT4, 120 h) [%] | IC50 [1, 10] [µg/mL] |
| --- | --- | --- | --- | --- | --- | --- | --- | --- | --- | --- | --- | --- | --- | --- | --- | --- |
| Nc1nc(NC2CC2)c2ncn([C@H]3C=C[C@@H](CO)C3)c2n1 [ABC, Abacavir, reference compound] | 58.67 ± 0.43 | 0.05 ± 0.031 | 5.0 | 0.18 ± 0.03 | 0.26 ± 0.00 (≈ 0.908 µM) | 17.83 ± 0.57 | – | – | – | – | – | – | – | – | – | – |
| Cc1cn([C@H]2C[C@H](N=[N+]=[N-])[C@@H](CO)O2)c(=O)[nH]c1=O [AZT, Zidovudine, reference compound] | 83.5 ± 0.57 | – | – | – | – | – | – | – | – | – | – | – | – | – | – | – |
| COc1ccccc1COC(=O)c1ccccc1 [Compound 1, 2-methoxy benzyl benzoate] | – | 0.25 ± 0.02 | 0.0073 | – | – | 39.1 ± 2.22 | 53.2 ± 3.35 | 0.001 (≈ 0.00413 µM) | – | – | – | – | – | – | – | – |
| C=C(C)[C@@H]1CC[C@]2(C)CC[C@]3(C)[C@H](CC[C@@H]4[C@@]5(C)CCC(=O)C(C)(C)[C@@H]5CC[C@]43C)[C@@H]12 [Compound 2, lupenone] | – | 0.002 ± 0.001 | 14,084.0 | 14.17 ± 0.94 | 28.83 ± 0.54 (≈ 67.9 µM) | 38.53 ± 0.69 | 64.74 ± 0.52 | – | 4.7 | 32.5 ± 0.7 (≈ 76.4 µM) | – | – | – | – | – | – |
| C=C(C)[C@@H]1CC[C@]2(CO)CC[C@]3(C)[C@H](CC[C@@H]4[C@@]5(C)CC[C@H](O)C(C)(C)[C@@H]5CC[C@]43C)[C@@H]12 [Compound 4, betulin] | – | 0.002 ± 0.04 | 15,551.2 | 16.54 ± 0.35 | – | 55.13 ± 0.15 | 76 | – | – | 31.7 ± 0.55 (≈ 71.7 µM) | 4.5 | 4.5 | 17700 ± 600 | – | – | – |
| C=C(C)[C@@H]1CC[C@]2(C)CC[C@]3(C)[C@H](CC[C@@H]4[C@@]5(C)CC[C@H](O)C(C)(C)[C@@H]5CC[C@]43C)[C@@H]12 [Compound 5, lupeol] | – | 0.047 ± 0.02 | 3048.2 | 75.75 ± 0.74 | – | 70.28 ± 0.75 | 77.01 ± 0.38 | – | – | 141.8 ± 0.7 (≈ 332 µM) | – | – | – | 11600 | – | – |
| CC[C@H](/C=C/[C@@H](C)[C@H]1CC[C@H]2[C@@H]3CC=C4C[C@@H](O)CC[C@]4(C)[C@H]3CC[C@]12C)C(C)C [Compound 7, stigmasterol] | – | – | 86.5 | 4.70 ± 3.43 | – | 43.71 ± 2.02 | – | – | – | 12.4 ± 10.9 (≈ 30 µM) | – | – | – | – | 76.8 ± 23.2 | 0.14 ± 0.04 |
| Cc1ccnc2c1NC(=O)c1cccnc1N2C1CC1 [NVP, Nevirapine, reference compound] | 72.53 ± 0.47 | 0.24 ± 0.09 | 3.5 | 0.57 ± 0.0 | 0.82 ± 0.0 (≈ 3.08 µM) | 39.13 ± 0.65 | – | – | – | – | – | – | – | – | – | – |
| C[C@H](Cn1cnc2c(N)ncnc21)OCP(=O)(O)O [TDF, Tenofovir, reference compound] | 80.55 ± 0.46 | – | – | 4.92 ± 0.71 | 6.73 ± 0.24 (≈ 23.4 µM) | 13.17 ± 0.43 | – | – | – | – | – | – | – | – | – | 0.04 ± 0.01 |
